Values after ≈ are worked out from the molar mass of the structure shown. Like-named read-outs stand apart in the source and are kept apart here. Square brackets hold non-standard residues; d marks the D form. Peptide text beside a SMILES is read from it. dBip(4'-Cl) = N[C@H](Cc1ccc(-c2ccc(Cl)cc2)cc1)C(=O)O
Tests used:
[1] = test system: Mupirocin-resistant MRSA (ATCC-BAA-1556); assay: Time-kill assay at 4xMIC (FIG. 1); assay type: cell-based, Staphylococcus aureus; details: 4×MIC
[2] = test system: Mupirocin-resistant MRSA (ATCC-BAA-1556); assay: Bactericidal/static determination assay at 4xMIC (FIG. 2); assay type: cell-based, Staphylococcus aureus; details: 4×MIC
[3] = test system: Staphylococcus aureus ATCC 19636; assay: microbe, parasite or virus in culture; assay type: cell-based; details: ATCC 19636
Experimental: (§1) The antibacterial potency of Compound 34 was measured using the in vitro broth microdilution assay under assay conditions described by the Clinical and Laboratory Standards Institute. […] The test substance was dissolved in 100% DMSO (unless stated below), suspended completely by sonication or vortexing, diluted by 2-fold serial titrations in the same vehicle, for a total of 10 test concentrations (final concentrations: 100, 50, 25, 12.5, 6.25, 3.125, 1.56, 0.78, 0.39, 0.2 μM). A 4 μL aliquot of each dilution was added to 196 μL of broth medium seeded with the organism suspension in wells of a 96 well plate (bacterial count: 2-8×10^5 colony forming units/mL final). The final volume was 200 μL in each well and the final DMSO concentration was 2 percent. The incubation time is either 1 or 2 days at 36° C. All strains tested underwent aerobic respiration, except for ATCC BAA-1805 and ATCC 29399. Following incubation, the test plates were visually examined and wells were scored for growth or complete growth inhibition to define the minimum inhibitory concentration. Each test substance was evaluated in duplicate and the results below are the duplicate test values.

[4] = test system: Staphylococcus aureus ATCC BAA-1717; assay: microbe, parasite or virus in culture; assay type: cell-based; details: ATCC BAA-1717
Experimental: as §1

[5] = test system: Staphylococcus epidermidis ATCC 12228; assay: microbe, parasite or virus in culture; assay type: cell-based; details: ATCC 12228
Experimental: as §1

S. aureus ECL 2963646 = assay: microbe, parasite or virus in culture; assay type: cell-based
Experimental: (§2) The antibacterial potency of Compound 34 was measured using the in vitro broth microdilution assay under assay conditions described by the Clinical and Laboratory Standards Institute. […] The test substance was dissolved in 100% DMSO (unless stated below), suspended completely by sonication or vortexing, diluted by 2-fold serial titrations in the same vehicle, for a total of 11 test concentrations. A 4 μL aliquot of each dilution was added to 196 μL of broth medium seeded with the organism suspension in wells of a 96 well plate (bacterial count: 2-8×10^5 colony forming units/mL final). The final volume was 200 μL in each well and the final DMSO concentration was 2%. The incubation time is 1 day at 36° C. All strains tested underwent aerobic respiration. Following incubation, the test plates were visually examined and wells were scored for growth or complete growth inhibition to define the minimum inhibitory concentration. Each test substance was evaluated in duplicate and the results below are the duplicate test values. Vehicle-control and an active reference agent were used as blank and positive controls, respectively.

S. aureus NARSA VRS11b = assay: microbe, parasite or virus in culture; assay type: cell-based
Experimental: as §2

S. aureus NARSA VRS1 = assay: microbe, parasite or virus in culture; assay type: cell-based
Experimental: as §2

S. aureus NARSA VRS2 = assay: microbe, parasite or virus in culture; assay type: cell-based
Experimental: as §2

S. aureus NARSA VRS3a = assay: microbe, parasite or virus in culture; assay type: cell-based
Experimental: as §2

[6] = test system: S. aureus (ATCC BAA-1556); assay: microbe, parasite or virus in culture
Experimental: S. aureus (BAA-1556) was from ATCC. Mupirocin (Cat # M2955) was purchased from TCI chemicals (India) Pvt. […] Ltd, India, Cation adjusted Mueller Hinton broth (CAMHB) and Mueller Hinton Agar (MHA) (Cat # M1657) were from HiMedia Laboratories Pvt. Ltd, India.
The MIC assay was done based on CLSI guidelines in a microtitre plate format (1, 2). Preparation and dilution of Test Item (TI) stock solutions: A 1280 μg/ml stock of Compound 34 was prepared by dissolving 1.28 mg in 1.0 ml of sterile water to obtain the Master Stock (MS) solution. The MS solution was diluted 2-fold to obtain a series of Working Stock (WS) solutions (Table 7). The final concentration of solvent in the assay was 2.5% and the assay volume was […].
Preparing the inoculum: One day before initiation of experiment, an isolated colony of S. aureus (ATCC BAA-1556) was inoculated into sterile CAMHB and incubated at 37° C. to exponential phase. After incubation, the turbidity was adjusted to that of a 0.5 McFarland Standard (approximately equivalent to 1.0×10^8 CFU/ml) and diluted to ˜1.0×10^6 CFU/ml.
MIC Assay: The MIC assay was performed in a 96 well microtitre plate in a total assay volume of 100 μl (Table 7). Each well containing different concentrations of test compound (concentration range between 0.015625 and 16.0 μg/ml) was inoculated with 50 μl of bacterial suspension (prepared from the inoculum grown overnight and adjusted approximately to 5.0×10^5 CFU/ml) along with culture control (CC, culture in broth), broth control (BC, broth only), and vehicle control (VC, 2.5% solvent in broth plus culture). The plate was incubated at 37° C. for 24 hr and turbidity was measured spectrophotometrically (Absorbance microplate reader, BioTek® India, ELx800™) at 600 nm and visually. The experiment was done in duplicates. The inoculum was also plated for enumeration of bacteria. The MIC was defined as the lowest concentration of test compound that prevented bacterial growth (lack of turbidity by OD at 600 nm and visual inspection relative to no growth control).

## N=C(N)NCCC[C@@H](NC(=O)[C@@H](Cc1ccc(-c2ccc(Cl)cc2)cc1)NC(=O)[C@@H](CCCNC(=N)N)NC(=O)[C@H](N)Cc1ccc(-c2ccc(Cl)cc2)cc1)C(N)=O [Compound 34] (H-[dBip(4'-Cl)][dR][dBip(4'-Cl)][dR]-NH2)
[1]
  time-kill: rate of killing compared to Linezolid, Retapamulin and Vancomycin: more rapidly as compared to Linezolid, Retapamulin and Vancomycin
[2]
  bactericidal activity compared to Linezolid, Retapamulin and Vancomycin: higher bactericidal activity than Linezolid, Retapamulin and Vancomycin
[3]
  MIC: 3.13 µM (≈ 2.64 µg/mL)
[4]
  MIC: 3.13 µM (≈ 2.64 µg/mL)
[5]
  MIC: 3.13 µM (≈ 2.64 µg/mL)
S. aureus ECL 2963646; ECL 2963646, read-out: MIC
  MIC: 2.37 µM
S. aureus ECL 2963646; S. aureus ECL 2963646, CAMHB II
  MIC: 2.0 µg/mL
S. aureus NARSA VRS11b; NARSA VRS11b, read-out: MIC
  MIC: 1.18 µM
S. aureus NARSA VRS11b; S. aureus NARSA VRS11b, CAMHB II
  MIC: 1.0 µg/mL
S. aureus NARSA VRS1; NARSA VRS1, read-out: MIC
  MIC: 2.37 µM
S. aureus NARSA VRS1; S. aureus NARSA VRS1, CAMHB II
  MIC: 2.0 µg/mL
S. aureus NARSA VRS2; NARSA VRS2, read-out: MIC
  MIC: 2.37 µM
S. aureus NARSA VRS2; S. aureus NARSA VRS2, CAMHB II
  MIC: 2.0 µg/mL
S. aureus NARSA VRS3a; NARSA VRS3a, read-out: MIC
  MIC: 2.37 µM
S. aureus NARSA VRS3a; S. aureus NARSA VRS3a, CAMHB II
  MIC: 2.0 µg/mL
[6]; ATCC BAA-1556, 24 h
  Mean MIC: 2.37 µM
[6]; S. aureus (ATCC BAA-1556), CAMHB, 37° C., 24 hr
  Mean MIC: 2.00 µg/mL
